Measurements taken from BindingDB's records for doi:10.1111/j.1476-5381.1994.tb14064.x (Glaxo Group Research, 1994).

Experiments:
Mu-type opioid receptor = Mu-type opioid receptor (Rattus norvegicus, UniProt P33535)
Substance-P receptor = Substance-P receptor (Rattus norvegicus, UniProt P14600)
Adenosine receptor A2a = Adenosine receptor A2a (Rattus norvegicus, UniProt P30543)
[1] = biological target: Gamma-aminobutyric acid (GABA) B receptor 1 (Rattus norvegicus, UniProt Q6MFX8)
[2] = biological target: Kappa-type opioid receptor (Rattus norvegicus, UniProt P34975)
Sequence of Kappa-type opioid receptor (P34975 whole entry): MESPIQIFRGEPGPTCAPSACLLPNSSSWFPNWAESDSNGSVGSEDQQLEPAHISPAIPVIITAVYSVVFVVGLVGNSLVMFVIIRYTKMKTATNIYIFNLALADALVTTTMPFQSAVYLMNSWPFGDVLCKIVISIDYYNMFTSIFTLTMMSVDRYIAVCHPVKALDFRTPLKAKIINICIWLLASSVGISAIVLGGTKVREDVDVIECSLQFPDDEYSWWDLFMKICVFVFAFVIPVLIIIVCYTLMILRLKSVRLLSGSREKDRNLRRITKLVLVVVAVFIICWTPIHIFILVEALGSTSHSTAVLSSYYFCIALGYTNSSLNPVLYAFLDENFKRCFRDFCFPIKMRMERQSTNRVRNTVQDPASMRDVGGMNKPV

D(2) dopamine receptor = D(2) dopamine receptor (Rattus norvegicus, UniProt P61169)
Vasopressin V2 receptor = Vasopressin V2 receptor (Rattus norvegicus, UniProt Q00788)
Sequence of Vasopressin V2 receptor (Q00788 whole entry): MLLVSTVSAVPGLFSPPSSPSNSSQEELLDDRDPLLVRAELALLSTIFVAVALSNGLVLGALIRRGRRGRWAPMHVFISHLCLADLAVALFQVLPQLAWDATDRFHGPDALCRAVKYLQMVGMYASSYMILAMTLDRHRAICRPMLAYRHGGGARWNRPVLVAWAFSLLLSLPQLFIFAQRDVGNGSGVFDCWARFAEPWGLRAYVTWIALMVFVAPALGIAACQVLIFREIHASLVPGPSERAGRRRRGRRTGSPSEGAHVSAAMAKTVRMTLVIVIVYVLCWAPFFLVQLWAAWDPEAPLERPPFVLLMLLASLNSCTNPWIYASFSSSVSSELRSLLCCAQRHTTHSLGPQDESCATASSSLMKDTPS

[3] = biological target: Beta-1 adrenergic receptor (Rattus norvegicus, UniProt P18090)
[4] = biological target: Endothelin-converting enzyme 1 (Rattus norvegicus, UniProt P42893)
Adenosine receptor A1 = Adenosine receptor A1 (Rattus norvegicus, UniProt P25099)
[5] = biological target: Alpha-1A adrenergic receptor (Rattus norvegicus, UniProt P43140)
Sequence of Alpha-1A adrenergic receptor (P43140 whole entry): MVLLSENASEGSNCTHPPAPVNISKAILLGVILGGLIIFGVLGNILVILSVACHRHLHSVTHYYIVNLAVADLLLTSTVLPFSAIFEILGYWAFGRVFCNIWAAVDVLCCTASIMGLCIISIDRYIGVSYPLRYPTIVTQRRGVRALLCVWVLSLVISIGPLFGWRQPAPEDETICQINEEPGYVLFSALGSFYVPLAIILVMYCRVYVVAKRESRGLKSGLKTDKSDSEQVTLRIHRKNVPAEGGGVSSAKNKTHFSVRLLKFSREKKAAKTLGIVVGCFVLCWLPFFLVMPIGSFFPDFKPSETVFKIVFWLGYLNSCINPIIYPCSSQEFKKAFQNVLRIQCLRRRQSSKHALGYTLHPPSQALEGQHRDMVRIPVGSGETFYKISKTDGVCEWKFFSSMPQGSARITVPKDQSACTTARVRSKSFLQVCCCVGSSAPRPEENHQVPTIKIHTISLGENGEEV

[6] = biological target: Gamma-aminobutyric acid receptor subunit alpha-1 (Rattus norvegicus, UniProt P62813)
Sequence of Gamma-aminobutyric acid receptor subunit alpha-1 (P62813 whole entry): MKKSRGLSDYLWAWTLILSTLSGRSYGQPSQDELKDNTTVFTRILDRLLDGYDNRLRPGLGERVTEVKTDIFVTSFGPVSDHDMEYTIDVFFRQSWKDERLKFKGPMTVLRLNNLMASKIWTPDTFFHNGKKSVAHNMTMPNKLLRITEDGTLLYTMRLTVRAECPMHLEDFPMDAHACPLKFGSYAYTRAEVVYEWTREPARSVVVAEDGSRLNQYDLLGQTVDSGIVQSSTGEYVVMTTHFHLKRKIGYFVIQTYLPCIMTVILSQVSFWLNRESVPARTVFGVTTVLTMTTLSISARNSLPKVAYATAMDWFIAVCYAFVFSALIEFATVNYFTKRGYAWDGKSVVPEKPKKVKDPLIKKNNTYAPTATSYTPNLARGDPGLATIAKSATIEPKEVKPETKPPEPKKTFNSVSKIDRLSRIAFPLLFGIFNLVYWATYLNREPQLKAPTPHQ

[7] = biological target: 5-hydroxytryptamine receptor 2C (Sus scrofa, UniProt K7GSR7)
[8] = biological target: 5-hydroxytryptamine receptor 3A (Rattus norvegicus, UniProt P35563)
[9] = biological target: Alpha-2C adrenergic receptor (Rattus norvegicus, UniProt P22086)
[10] = biological target: Beta-2 adrenergic receptor (Cavia porcellus, UniProt Q8K4Z4)
B1 bradykinin receptor = B1 bradykinin receptor (Rattus norvegicus, UniProt P97583)
Sequence of B1 bradykinin receptor (P97583 whole entry): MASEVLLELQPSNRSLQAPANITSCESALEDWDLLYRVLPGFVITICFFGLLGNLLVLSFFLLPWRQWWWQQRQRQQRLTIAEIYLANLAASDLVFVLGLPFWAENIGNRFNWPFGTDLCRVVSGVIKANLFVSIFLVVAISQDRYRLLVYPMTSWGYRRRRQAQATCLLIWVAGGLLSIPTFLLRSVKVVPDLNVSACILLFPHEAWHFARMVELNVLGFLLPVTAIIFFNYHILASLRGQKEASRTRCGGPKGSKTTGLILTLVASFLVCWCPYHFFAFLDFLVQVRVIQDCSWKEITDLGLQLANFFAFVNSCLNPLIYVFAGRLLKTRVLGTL

[11] = biological target: Bombesin receptor subtype-3 (Rattus norvegicus, UniProt Q8K418)
[12] = biological target: Calcitonin gene-related peptide 1 (Rattus norvegicus, UniProt P01256)
Sequence of Calcitonin gene-related peptide 1 (P01256 83-119 limits assumed): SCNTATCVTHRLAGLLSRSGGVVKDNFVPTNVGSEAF

[13] = biological target: Gastrin/cholecystokinin type B receptor (Rattus norvegicus, UniProt P30553)
Sequence of Gastrin/cholecystokinin type B receptor (P30553 whole entry): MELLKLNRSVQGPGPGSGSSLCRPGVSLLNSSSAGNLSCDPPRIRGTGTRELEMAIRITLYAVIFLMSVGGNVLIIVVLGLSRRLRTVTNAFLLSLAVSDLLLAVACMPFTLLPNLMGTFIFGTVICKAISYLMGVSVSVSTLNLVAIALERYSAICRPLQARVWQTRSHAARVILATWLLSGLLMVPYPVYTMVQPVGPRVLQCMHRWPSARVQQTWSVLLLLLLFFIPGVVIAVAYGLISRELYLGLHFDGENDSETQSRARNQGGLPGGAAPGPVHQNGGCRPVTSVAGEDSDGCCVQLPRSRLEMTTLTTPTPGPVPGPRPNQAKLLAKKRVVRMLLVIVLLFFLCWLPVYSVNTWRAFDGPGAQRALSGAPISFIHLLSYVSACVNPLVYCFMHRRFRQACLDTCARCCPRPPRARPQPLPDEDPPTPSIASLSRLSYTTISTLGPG

[14] = biological target: Muscarinic acetylcholine receptor M2 (Rattus norvegicus, UniProt P10980)
[15] = biological target: Muscarinic acetylcholine receptor M1 (Rattus norvegicus, UniProt P08482)
[16] = biological target: Muscarinic acetylcholine receptor M3 (Rattus norvegicus, UniProt P08483)
D(1A) dopamine receptor = D(1A) dopamine receptor (Rattus norvegicus, UniProt P18901)
Sequence of D(1A) dopamine receptor (P18901 whole entry): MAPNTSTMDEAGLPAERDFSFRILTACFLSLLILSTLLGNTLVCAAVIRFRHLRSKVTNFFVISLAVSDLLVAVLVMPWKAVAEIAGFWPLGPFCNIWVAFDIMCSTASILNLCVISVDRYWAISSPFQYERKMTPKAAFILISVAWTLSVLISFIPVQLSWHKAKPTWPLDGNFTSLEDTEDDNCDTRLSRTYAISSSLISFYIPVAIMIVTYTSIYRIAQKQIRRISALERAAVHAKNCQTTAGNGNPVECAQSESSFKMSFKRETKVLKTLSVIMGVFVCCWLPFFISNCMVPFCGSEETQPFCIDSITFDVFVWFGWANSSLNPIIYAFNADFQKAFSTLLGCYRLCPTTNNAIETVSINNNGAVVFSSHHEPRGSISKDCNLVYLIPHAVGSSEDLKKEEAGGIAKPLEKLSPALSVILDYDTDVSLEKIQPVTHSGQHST

Galanin peptides = Galanin peptides (Rattus norvegicus, UniProt P10683)
[17] = biological target: Glutamate receptor ionotropic, NMDA 1 (Rattus norvegicus, UniProt P35439)
[18] = biological target: Glycine amidinotransferase, mitochondrial (Rattus norvegicus, UniProt P50442)
Histamine H1 receptor = Histamine H1 receptor (Rattus norvegicus, UniProt P31390)
Sequence of Histamine H1 receptor (P31390 whole entry): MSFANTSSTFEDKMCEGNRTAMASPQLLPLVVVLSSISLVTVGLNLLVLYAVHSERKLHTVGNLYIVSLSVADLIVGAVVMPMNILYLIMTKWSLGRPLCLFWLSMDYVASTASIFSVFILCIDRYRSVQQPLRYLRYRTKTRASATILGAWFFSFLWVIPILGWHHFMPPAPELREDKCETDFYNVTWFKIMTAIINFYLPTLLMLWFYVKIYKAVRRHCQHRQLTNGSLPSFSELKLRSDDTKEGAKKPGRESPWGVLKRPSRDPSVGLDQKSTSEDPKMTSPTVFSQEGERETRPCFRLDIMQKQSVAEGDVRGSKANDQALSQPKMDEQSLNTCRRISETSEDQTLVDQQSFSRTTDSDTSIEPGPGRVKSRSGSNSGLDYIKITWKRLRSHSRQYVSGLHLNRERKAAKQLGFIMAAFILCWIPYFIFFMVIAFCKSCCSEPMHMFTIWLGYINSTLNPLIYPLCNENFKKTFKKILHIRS

Hrh3 protein = Hrh3 protein (Rattus norvegicus, UniProt Q5PPG3)
[19] = biological target: Nicotinic acetylcholine receptor (Rattus leucopus, UniProt Q62594)
Sequence of Nicotinic acetylcholine receptor (Q62594 whole entry): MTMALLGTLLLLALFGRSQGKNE

Substance-K receptor = Substance-K receptor (Rattus norvegicus, UniProt P16610)
Neuromedin-K receptor = Neuromedin-K receptor (Mus musculus, UniProt P47937)
Pro-neuropeptide Y = Pro-neuropeptide Y (Rattus norvegicus, UniProt P07808)
Somatostatin = Somatostatin (Rattus norvegicus, UniProt P60042)
[20] = biological target: Rat vasopressin-neurophysin (Rattus norvegicus, UniProt Q6LEI5)
VIP peptides = VIP peptides (Rattus norvegicus, UniProt P01283)
Sequence of VIP peptides (P01283 125-152 limits assumed): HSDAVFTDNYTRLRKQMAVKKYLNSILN

Sequence of Gamma-aminobutyric acid (GABA) B receptor 1 (Q6MFX8 whole entry): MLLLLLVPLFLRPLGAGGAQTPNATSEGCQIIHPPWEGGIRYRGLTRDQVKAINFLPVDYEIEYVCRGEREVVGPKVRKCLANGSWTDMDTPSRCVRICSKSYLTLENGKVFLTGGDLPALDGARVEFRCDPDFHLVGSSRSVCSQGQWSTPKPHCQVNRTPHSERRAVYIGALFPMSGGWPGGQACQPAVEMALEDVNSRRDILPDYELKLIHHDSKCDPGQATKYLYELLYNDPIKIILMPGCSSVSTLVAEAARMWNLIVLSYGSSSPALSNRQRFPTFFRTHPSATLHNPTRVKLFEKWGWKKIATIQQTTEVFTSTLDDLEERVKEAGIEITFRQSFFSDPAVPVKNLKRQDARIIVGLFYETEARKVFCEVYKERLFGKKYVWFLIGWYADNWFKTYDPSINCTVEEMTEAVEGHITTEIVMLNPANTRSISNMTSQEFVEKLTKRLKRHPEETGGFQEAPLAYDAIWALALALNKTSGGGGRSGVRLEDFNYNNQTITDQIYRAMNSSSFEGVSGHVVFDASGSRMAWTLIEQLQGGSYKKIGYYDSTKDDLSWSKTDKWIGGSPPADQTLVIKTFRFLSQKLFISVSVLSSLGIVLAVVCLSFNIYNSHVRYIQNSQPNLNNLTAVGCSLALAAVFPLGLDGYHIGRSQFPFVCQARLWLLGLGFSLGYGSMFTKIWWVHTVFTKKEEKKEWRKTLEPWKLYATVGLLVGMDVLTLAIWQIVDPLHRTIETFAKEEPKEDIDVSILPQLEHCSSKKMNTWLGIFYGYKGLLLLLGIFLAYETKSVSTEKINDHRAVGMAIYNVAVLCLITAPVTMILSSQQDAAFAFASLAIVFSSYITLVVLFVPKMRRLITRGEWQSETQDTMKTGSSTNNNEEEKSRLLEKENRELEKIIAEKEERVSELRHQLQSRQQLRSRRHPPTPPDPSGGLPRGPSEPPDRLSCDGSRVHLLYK
Sequence of Substance-P receptor (P14600 whole entry): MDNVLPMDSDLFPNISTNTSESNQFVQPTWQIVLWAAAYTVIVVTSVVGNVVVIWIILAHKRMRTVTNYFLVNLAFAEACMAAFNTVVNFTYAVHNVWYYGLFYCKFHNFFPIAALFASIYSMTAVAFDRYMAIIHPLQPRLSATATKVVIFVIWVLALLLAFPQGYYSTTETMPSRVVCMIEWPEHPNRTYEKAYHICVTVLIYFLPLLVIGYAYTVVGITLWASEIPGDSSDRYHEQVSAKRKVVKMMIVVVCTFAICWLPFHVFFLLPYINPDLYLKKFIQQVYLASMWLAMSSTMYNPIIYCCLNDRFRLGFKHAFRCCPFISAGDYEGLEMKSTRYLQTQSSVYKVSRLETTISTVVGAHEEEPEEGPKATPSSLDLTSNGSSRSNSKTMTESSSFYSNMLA

Cn1cc(C(=O)OCC2CCN(CCNS(C)(=O)=O)CC2)c2ccccc21 [GR 113808]
Ki (Mu-type opioid receptor): > 10 µM
Ki (Substance-P receptor): > 10 µM
Ki (Adenosine receptor A2a): > 10 µM
Ki [1]: > 10 µM
Ki [2]: > 10 µM
Ki (D(2) dopamine receptor): > 10 µM
Ki (Vasopressin V2 receptor): > 10 µM
Ki [3]: 7.94 µM
Ki [4]: > 10 µM
Ki (Adenosine receptor A1): > 10 µM
Ki [5]: > 10 µM
Ki [6]: > 10 µM
Ki [7]: > 10 µM
Ki [8]: 1000 nM
Ki [9]: > 10 µM
Ki [10]: > 10 µM
Ki (B1 bradykinin receptor): > 10 µM
Ki [11]: > 10 µM
Ki [12]: > 10 µM
Ki [13]: > 10 µM
Ki [14]: > 10 µM
Ki [15]: 6.31 µM
Ki [16]: > 10 µM
Ki (D(1A) dopamine receptor): > 10 µM
Ki (Galanin peptides): > 10 µM
Ki [17]: > 10 µM
Ki [18]: > 10 µM
Ki (Histamine H1 receptor): > 10 µM
Ki (Hrh3 protein): > 10 µM
Ki [19]: > 10 µM
Ki (Substance-K receptor): > 10 µM
Ki (Neuromedin-K receptor): > 10 µM
Ki (Pro-neuropeptide Y): > 10 µM
Ki (Somatostatin): > 10 µM
Ki [20]: > 10 µM
Ki (VIP peptides): > 10 µM
